# Key:
# ABUTH = assay: Pre-emergence herbicidal activity on ABUTH (velvetleaf); assay type: in vivo, Abutilon theophrasti; conditions: greenhouse
# How it was run: (§1)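 Steps: sterilized fertilized topsoil potted; seeds sown, covered; compound (50:50 acetone/water dilution) applied to soil surface; 0.64 cm overhead irrigation; greenhouse 30/21 °C day/night; % inhibition vs untreated scored at ~14 d; GR80 calculated.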
# SOLNI = assay: Pre-emergence herbicidal activity on SOLNI (black nightshade); assay type: in vivo, Solanum nigrum; conditions: greenhouse
# How it was run: as §1
# AMARE = assay: Pre-emergence herbicidal activity on AMARE (redroot pigweed); assay type: in vivo, Amaranthus retroflexus; conditions: greenhouse
# How it was run: as §1
# DATST = assay: Pre-emergence herbicidal activity on DATST (jimsonweed); assay type: in vivo, Datura stramonium; conditions: greenhouse
# How it was run: as §1
# CHEAL = assay: Pre-emergence herbicidal activity on CHEAL (common lambsquarters); assay type: in vivo, Chenopodium album; conditions: greenhouse
# How it was run: as §1
# CONAR = assay: Pre-emergence herbicidal activity on CONAR (field bindweed); assay type: in vivo, Convolvulus arvensis; conditions: greenhouse
# How it was run: as §1
# POROL = assay: Pre-emergence herbicidal activity on POROL (common purslane); assay type: in vivo, Portulaca oleracea; conditions: greenhouse
# How it was run: as §1
# CIRAR = assay: Pre-emergence herbicidal activity on CIRAR (canada thistle, seedling); assay type: in vivo, Cirsium arvense; conditions: greenhouse
# How it was run: as §1
# ECHCG = assay: Pre-emergence herbicidal activity on ECHCG (barnyardgrass); assay type: in vivo, Echinochloa crus-galli; conditions: lowest tested rate giving 80% or greater inhibition, approx. 14 days after planting and treating, greenhouse
# How it was run: as §1
# PANMI = assay: Pre-emergence herbicidal activity on PANMI (wild proso millet); assay type: in vivo, Panicum miliaceum; conditions: greenhouse
# How it was run: as §1
# SORHA = assay: Pre-emergence herbicidal activity on SORHA (johnsongrass, seedling); assay type: in vivo, Sorghum halepense; conditions: greenhouse
# How it was run: as §1
# SETFA = assay: Pre-emergence herbicidal activity on SETFA (giant foxtail); assay type: in vivo, Setaria faberi; conditions: greenhouse
# How it was run: as §1
# PANDI = assay: Pre-emergence herbicidal activity on PANDI (fall panicum); assay type: in vivo, Panicum dichotomiflorum; conditions: greenhouse
# How it was run: as §1
# SORVU = assay: Pre-emergence herbicidal activity on SORVU (shattercane); assay type: in vivo, Sorghum vulgare; conditions: lowest tested rate giving 80% or greater inhibition, approx. 14 days after planting and treating, greenhouse
# How it was run: as §1
# BRAPP = assay: Pre-emergence herbicidal activity on BRAPP (broadleaf signalgrass); assay type: in vivo, Brachiaria platyphylla; conditions: greenhouse
# How it was run: as §1
# DIGSA = assay: Pre-emergence herbicidal activity on DIGSA (large crabgrass); assay type: in vivo, Digitaria sanguinalis; conditions: greenhouse
# How it was run: as §1
# [1] = tested on: monocotyledonous and dicotyledonous annual plant species; assay: Greenhouse pre-emergence test, all species of the test taken together; assay type: in vivo
# Excerpt: All such uses, and the biological activity enabling such uses, are embraced by the term “herbicidal” herein. […] Where herbicidal activity was evident but 80% inhibition was not achieved at the highest rate tested (typically 1000 g/ha), an asterisk (*) is shown in the following tables. Herbicidal activity evident in the form of symptoms of phytotoxicity, in the absence of at least 80% inhibition at any rate, is indicated in the tables by “phyto”. A blank cell in the following tables indicates no herbicidal or phytotoxic response at any rate tested.
# The pre-emergence tests were conducted by the following procedure. Topsoil was sieved to pass through a 1.27 cm screen. Fertilizer was added to the topsoil and the mixture was then sterilized by heating. The topsoil mixture was placed in a pot and compacted to a depth of 1.0 to 1.25 cm from the top of the pot. Seeds of each of several monocotyledonous and dicotyledonous annual plant species were placed on top of the soil. Additional soil was subsequently placed over the seeds to level-fill the pot. A known amount of each test compound dissolved or suspended in an appropriate organic solvent was diluted with a 50:50 mix of acetone and water and applied to the surface of the soil. After treatment the plants were placed in a greenhouse with a 30/21° C. day/night temperature regime where they received 0.64 cm of overhead irrigation. All subsequent watering consisted of a light overhead mist and/or subirrigation as needed for germination and growth.
# Pre-emergence herbicidal activity of the compound of Example 5, a racemic mixture of R- and S-enantiomers of N,N′-(1,2-propanediylbis)-3-(trifluoromethyl) benzamide, was compared with that of the individual R- and S-enantiomers, the compounds of Examples 5a and 5b respectively. The procedure was exactly as described above. Rates tested were 1000, 650, 300, 200, 100, 65, 30 and 10 g/ha.
# In a greenhouse pre-emergence test conducted according to the procedure described hereinabove, R—N,N′-(1,2-propanediylbis)-3-(trifluoromethyl)benzamide (the compound of Example 5a) was applied at 200 g/ha and acetochlor was applied at 100 g/ha, both individually and in combination.
# In the same greenhouse pre-emergence test, R-2-fluoro-3-trifluoromethyl-N-[1-methyl-2-(3-trifluoromethyl)phenylcarbonylamino]ethylbenzamide (the compound of Example 13) was applied at 100 g/ha and acetochlor was applied at 100 g/ha, both individually and in combination.
# dicotyledonous species = assay: Greenhouse post-emergence test in combination with glyphosate, dicotyledonous species; assay type: in vivo
# Excerpt: (§2) A pre-prepared topsoil mixture (described above) was placed in a pot and compacted to a depth of 1.0 to 1.25 cm from the top of the pot. Seeds of each of several monocotyledonous and dicotyledonous annual plant species were placed on top of the soil The seeds were covered with a mixture of 50% topsoil and 50% Rediearth™ in sufficient quantity to level-fill the pots. The pots were then placed on a greenhouse bench and subirrigated as needed until plants growing from the seeds had emerged and reached a suitable growth stage for post-emergence treatment, typically 9 to 14 days after planting.
# (§3) A known amount of each test compound dissolved or suspended in an appropriate organic solvent was diluted with a 50:50 mix of acetone and water and applied to the plants by spraying with a standard spray nozzle in a spray volume of 3,100 l/ha at a spray pressure of […] (30 psig). Control plants were not sprayed.
# (§4) After treatment the plants were placed in a greenhouse with a 30/21° C. day/night temperature regime and were subsequently watered as needed for growth. Approximately 14 days after treatment, the plants were observed and herbicidal efficacy recorded as percent inhibition by comparison with control plants.
# (§5) In a greenhouse post-emergence test conducted according to the procedure described hereinabove, R-2-fluoro-3-trifluoromethyl-N-[1-methyl-2-(3-trifluoromethyl)phenylcarbonylamino]ethylbenzamide (the compound of Example 13) was applied at 0, 64, 125 and 250 g/ha in combination with glyphosate isopropylammonium salt at 1000 g a.e./ha. The glyphosate herbicide alone gave 72% control of dicotyledonous species and 84% control of monocotyledonous species. […] At 250 g/ha, addition of the compound of Example 13 gave 93% control of dicotyledonous species, but reduced control of monocotyledonous species to 73%.
# monocotyledonous species = assay: Greenhouse post-emergence test in combination with glyphosate, monocotyledonous species; assay type: in vivo
# Excerpt: as §2, §3, §4, §5
# [2] = lowest tested rate giving 80% or greater inhibition, approx. 14 days after planting and treating
# [3] = Example 13 at 64 g/ha in combination with glyphosate isopropylammonium salt 1000 g a.e./ha
# [4] = Example 13 at 125 g/ha in combination with glyphosate isopropylammonium salt 1000 g a.e./ha
# [5] = Example 13 at 250 g/ha in combination with glyphosate isopropylammonium salt 1000 g a.e./ha
smiles,measurement,setting,value
"C[C@H](CNC(=O)c1cccc(C(F)(F)F)c1)NC(=O)c1cccc(C(F)(F)F)c1F [Example 13, R-2-fluoro-3-trifluoromethyl-N-[1-methyl-2-(3-trifluoromethyl)phenylcarbonylamino]ethylbenzamide]","Percent control by pre-emergence application, ABUTH",ABUTH; applied alone at 100 g/ha,2%
same,Pre-emergence activity (GR80) on ABUTH,ABUTH; [2],250 g/ha
same,"Percent control by pre-emergence application, SOLNI",SOLNI; applied alone at 100 g/ha,45%
same,Pre-emergence activity (GR80) on SOLNI,SOLNI; [2],125 g/ha
same,"Percent control by pre-emergence application, AMARE",AMARE; applied alone at 100 g/ha,86%
same,Pre-emergence activity (GR80) on AMARE,AMARE; [2],64 g/ha
same,"Percent control by pre-emergence application, DATST",DATST; applied alone at 100 g/ha,12%
same,Pre-emergence activity (GR80) on DATST,DATST; [2],125 g/ha
same,"Percent control by pre-emergence application, CHEAL",CHEAL; applied alone at 100 g/ha,95%
same,Pre-emergence activity (GR80) on CHEAL,CHEAL; [2],64 g/ha
same,"Percent control by pre-emergence application, CONAR",CONAR; applied alone at 100 g/ha,38%
same,Pre-emergence activity (GR80) on CONAR,CONAR; [2],750 g/ha
same,"Percent control by pre-emergence application, POROL",POROL; applied alone at 100 g/ha,100%
same,Pre-emergence activity (GR80) on PORAL,POROL; [2],64 g/ha
same,"Percent control by pre-emergence application, CIRAR",CIRAR; applied alone at 100 g/ha,25%
same,Pre-emergence activity (GR80) on CIRAR,CIRAR; [2],64 g/ha
same,Pre-emergence activity (GR80) on ECHCG,ECHCG,500 g/ha
same,"Percent control by pre-emergence application, PANMI",PANMI; applied alone at 100 g/ha,5%
same,Pre-emergence activity (GR80) on PANMI,PANMI; [2],500 g/ha
same,"Percent control by pre-emergence application, SORHA",SORHA; applied alone at 100 g/ha,7%
same,Pre-emergence activity (GR80) on SORHA,SORHA; [2],500 g/ha
same,"Percent control by pre-emergence application, SETFA",SETFA; applied alone at 100 g/ha,25%
same,Pre-emergence activity (GR80) on SETFA,SETFA; [2],125 g/ha
same,"Percent control by pre-emergence application, PANDI",PANDI; applied alone at 100 g/ha,40%
same,Pre-emergence activity (GR80) on PANDI,PANDI; [2],250 g/ha
same,Pre-emergence activity (GR80) on SORVU,SORVU,1000 g/ha
same,"Percent control by pre-emergence application, BRAPP",BRAPP; applied alone at 100 g/ha,4%
same,Pre-emergence activity (GR80) on BRAPP,BRAPP; [2],500 g/ha
same,"Percent control by pre-emergence application, DIGSA",DIGSA; applied alone at 100 g/ha,43%
same,Pre-emergence activity (GR80) on DIGSA,DIGSA; [2],125 g/ha
same,herbicidal activity of the combination compared with expectation,"[1]; Example 13 100 g/ha + acetochlor 100 g/ha, at least on ABUTH, DATST, SOLNI and PANMI",greater than expected herbicidal activity
same,number of the 14 species showing >85% control,[1]; Example 13 100 g/ha in combination with acetochlor 100 g/ha,10
same,number of the 14 species showing >85% control,[1]; Example 13 alone at 100 g/ha,3
same,control of dicotyledonous species,dicotyledonous species; [3],85%
same,control of dicotyledonous species,dicotyledonous species; [4],95%
same,control of dicotyledonous species,dicotyledonous species; [5],93%
same,control of monocotyledonous species,monocotyledonous species; [3],89%
same,control of monocotyledonous species,monocotyledonous species; [4],89%
same,control of monocotyledonous species,monocotyledonous species; [5],73%

# From patent publication US20020052295A1, “Diacyl derivatives of propylene diamine having herbicidal activity” (priority 1999, published 2002)
